Patent US8629102B2, “3-hydroxyisothiazole 1-oxide derivatives” (Mochida Pharmaceutical Co., Ltd., priority 2011, dated 2014)

Biological target: T1, GPR40 of human origin (Homo sapiens, UniProt O14842)
T1 construct: expressed in transfected cells
Experiment: Agonist action on GPR40 of human origin (intracellular Ca2+ change)
Assay type: cell-based
Conditions: CHO cell strain stably expressing GPR40 of human origin; change in Ca2+ concentration, fluorescent calcium indicator
Method: Pharmacological Test Example 1: Agonist Action on GPR40 of Human Origin
A CHO cell strain stably expressing GPR40 of human origin was used to determine the agonist action of a subject compound. This cell strain was seeded in a clear bottom 96 well plate at 4×10^4 cells/100 pt/well. The cell strain iswas cultured in a CO2 incubator overnight using a Ham's F-12 medium containing a 10% fetal bovine serum, 100 U/mL penicillin, 0.1 mg/mL streptomycin, and 400 μg/mL Geneticin. Calcium 4 Assay Kit (Molecular Devices) was used as a fluorescent calcium indicator. One mL of 77 mg/mL probenecid (Invitrogen) was added to 100 mL of a calcium indicator solution to prepare a solution (loading solution) mixed with a 20 mM HEPES-containing Hanks' balanced salt solution (HBSS) in equal proportions. To the cells from which the culture solution is removed, 200 μl of the loading solution was added, and the cells were cultured in a CO2 incubator for 1 hour. The subject compound was diluted with a 20 mM HEPES-containing HBSS and was added to the cells by 50 μL, and the change in the Ca^2+ concentration was measured with an intracellular ion analyzer. The EC50 value of the subject compound was calculated using the dose-response curve of fluorescence intensity variation.

T1 sequence (O14842 whole entry): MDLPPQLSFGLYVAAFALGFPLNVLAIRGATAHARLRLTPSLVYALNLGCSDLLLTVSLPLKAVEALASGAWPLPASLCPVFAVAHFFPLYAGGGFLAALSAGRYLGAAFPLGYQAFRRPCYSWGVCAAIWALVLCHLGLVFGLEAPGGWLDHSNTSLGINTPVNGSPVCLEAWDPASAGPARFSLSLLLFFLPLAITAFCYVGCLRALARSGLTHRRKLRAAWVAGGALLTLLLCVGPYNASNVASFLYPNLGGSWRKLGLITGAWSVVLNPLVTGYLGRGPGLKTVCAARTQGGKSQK

Row | Compound | EC50
1 | [O-][s+]1nc(O)cc1-c1ccc(O[C@@H]2CCc3c(-c4ccc(Cl)nc4)cccc32)cc1 (stereo partly drawn) [Example 74, 5-(4-(((R)-4-(6-chloropyridin-3-yl)-2,3-dihydro-1H-inden-1-yl)oxy)phenyl)-3-hydroxyisothiazole 1-oxide] | < 300 nM
2 | N#Cc1ccc(-c2cccc3c2CC[C@H]3Oc2ccc(-c3cc(O)n[s+]3[O-])cc2)cn1 (stereo partly drawn) [Example 157, 5-((1R)-1-(4-(3-hydroxy-1-oxidoisothiazol-5-yl)phenoxy)-2,3-dihydro-1H-inden-4-yl)picolinonitrile] | 300 to 3000 nM
3 | CC(C)(O)CCOc1ccc(Oc2cccc3c2CC[C@H]3Oc2ccc(-c3cc(O)n[s+]3[O-])cc2)cc1 (stereo partly drawn) [Example 113, 3-hydroxy-5-(4-(((R)-4-(4-(3-hydroxy-3-methylbutoxy)phenoxy)-2,3-dihydro-1H-inden-1-yl)oxy)phenyl)isothiazole 1-oxide] | < 300 nM
4 | CC(=O)c1ccc(-c2cccc3c2CC[C@H]3Oc2ccc(-c3cc(O)n[s+]3[O-])cc2)s1 (stereo partly drawn) [Example 79, 1-(5-((1R)-1-(4-(3-hydroxy-1-oxidoisothiazol-5-yl)phenoxy)-2,3-dihydro-1H-inden-4-yl)thiophen-2-yl)ethanone] | < 300 nM
5 | Cc1ccc(-c2cccc3c2CC[C@H]3Oc2ccc(-c3cc(O)n[s+]3[O-])cc2)c(Cl)c1 (stereo partly drawn) [Example 43, 5-(4-(((R)-4-(2-chloro-4-methylphenyl)-2,3-dihydro-1H-inden-1-yl)oxy)phenyl)-3-hydroxyisothiazole 1-oxide] | < 300 nM
6 | N#Cc1ccc(Oc2cccc3c2CC[C@H]3Oc2ccc(-c3cc(O)n[s+]3[O-])cc2)cc1N1CCOC1=O (stereo partly drawn) [Example 131, 4-(((R)-1-(4-(3-hydroxy-1-oxidoisothiazol-5-yl)phenoxy)-2,3-dihydro-1H-inden-4-yl)oxy)-2-(2-oxooxazolidin-3-yl)benzonitrile] | < 300 nM
7 | COc1ncc(Oc2cccc3c2CC[C@H]3Oc2ccc(-c3cc(O)n[s+]3[O-])cc2)cn1 (stereo partly drawn) [Example 110, 3-hydroxy-5-(4-(((R)-4-((2-methoxypyrimidin-5-yl)oxy)-2,3-dihydro-1H-inden-1-yl)oxy)phenyl)isothiazole 1-oxide] | < 300 nM
8 | CCOc1ncccc1-c1cccc2c1CC[C@H]2Oc1ccc(-c2cc(O)n[s+]2[O-])cc1 (stereo partly drawn) [Example 19, 5-(4-(((R)-4-(2-ethoxypyridin-3-yl)-2,3-dihydro-1H-inden-1-yl)oxy)phenyl)-3-hydroxyisothiazole 1-oxide] | < 300 nM
9 | COc1ccc(F)cc1-c1cccc2c1CC[C@H]2Oc1ccc(-c2cc(O)n[s+]2[O-])cc1 (stereo partly drawn) [Example 56, 5-(4-(((R)-4-(5-fluoro-2-methoxyphenyl)-2,3-dihydro-1H-inden-1-yl)oxy)phenyl)-3-hydroxyisothiazole 1-oxide] | < 300 nM
10 | [O-][s+]1nc(O)cc1-c1ccc(O[C@@H]2CCc3c(-c4cccc(C(F)(F)F)c4)cccc32)cc1 (stereo partly drawn) [Example 63, 5-(4-(((R)-4-(3-trifluoromethylphenyl)-2,3-dihydro-1H-inden-1-yl)oxy)phenyl)-3-hydroxyisothiazole 1-oxide] | 300 to 3000 nM
11 | Cc1ccc(F)cc1-c1cccc2c1CC[C@H]2Oc1ccc(-c2cc(O)n[s+]2[O-])cc1 (stereo partly drawn) [Example 41, 5-(4-(((R)-4-(5-fluoro-2-methylphenyl)-2,3-dihydro-1H-inden-1-yl)oxy)phenyl)-3-hydroxyisothiazole 1-oxide] | < 300 nM
12 | [O-][s+]1nc(O)cc1-c1ccc(OCC2=CC3(CCCCC3)CCC2)cc1 (centres unmarked) [Example 120, 3-hydroxy-5-(4-(spiro[5.5]undec-1-en-2-ylmethoxy)phenyl)isothiazole 1-oxide] | 300 to 3000 nM
13 | Cc1cc(OCCCS(C)(=O)=O)cc(C)c1-c1cccc(CNc2ccc(-c3cc(O)n[s+]3[O-])cc2)c1 (centres unmarked) [Example 2, 5-(4-(((2′,6′-dimethyl-4′-(3-(methylsulfonyl)propoxy)-[1,1′-biphenyl]-3-yl)methyl)amino)phenyl)-3-hydroxyisothiazole 1-oxide] | < 300 nM
14 | CCOCCOc1cc(C)c(Oc2cccc3c2CC[C@H]3Oc2ccc(-c3cc(O)n[s+]3[O-])cc2)c(C)c1 (stereo partly drawn) [Example 108, 5-(4-(((R)-4-(4-(2-ethoxyethoxy)-2,6-dimethylphenoxy)-2,3-dihydro-1H-inden-1-yl)oxy)phenyl)-3-hydroxyisothiazole 1-oxide] | < 300 nM
15 | Cc1ccc(-c2cccc3c2CC[C@H]3Oc2ccc(-c3cc(O)n[s+]3[O-])cc2)cc1F (stereo partly drawn) [Example 13, 5-(4-(((R)-4-(3-fluoro-4-methylphenyl)-2,3-dihydro-1H-inden-1-yl)oxy)phenyl)-3-hydroxyisothiazole 1-oxide] | < 300 nM
16 | COc1cccnc1Oc1cccc2c1CC[C@H]2Oc1ccc(-c2cc(O)n[s+]2[O-])cc1 (stereo partly drawn) [Example 132, 3-hydroxy-5-(4-(((R)-4-((3-methoxypyridin-2-yl)oxy)-2,3-dihydro-1H-inden-1-yl)oxy)phenyl)isothiazole 1-oxide] | 300 to 3000 nM

More lines, now with the values ahead:

Row | EC50 | Compound
17 | < 300 nM | Cc1ccc(Oc2cccc3c2CC[C@H]3Oc2ccc(-c3cc(O)n[s+]3[O-])cc2)nc1 (stereo partly drawn) [Example 134, 3-hydroxy-5-(4-(((R)-4-((5-methylpyridin-2-yl)oxy)-2,3-dihydro-1H-inden-1-yl)oxy)phenyl)isothiazole 1-oxide]
18 | < 300 nM | [O-][s+]1nc(O)cc1-c1ccc(O[C@@H]2CCc3c(Oc4ccc(C(F)(F)F)cc4)cccc32)cc1 (stereo partly drawn) [Example 87, 3-hydroxy-5-(4-(((R)-4-(4-(trifluoromethyl)phenoxy)-2,3-dihydro-1H-inden-1-yl)oxy)phenyl)isothiazole 1-oxide]
19 | < 300 nM | [O-][s+]1nc(O)cc1-c1ccc(OCCc2ccc(Oc3ccccc3)cc2)cc1 (centres unmarked) [Example 162, 3-hydroxy-5-(4-(4-phenoxyphenethoxy)phenyl)isothiazole 1-oxide]
20 | < 300 nM | CCCc1ccc(-c2cccc3c2CC[C@H]3Oc2ccc(-c3cc(O)n[s+]3[O-])cc2)cc1 (stereo partly drawn) [Example 22, 5-(4-(((R)-4-(4-n-propylphenyl)-2,3-dihydro-1H-inden-1-yl)oxy)phenyl)-3-hydroxyisothiazole 1-oxide]
21 | < 300 nM | N#Cc1ccc(Oc2cccc3c2CC[C@H]3Oc2ccc(-c3cc(O)n[s+]3[O-])cc2)cc1 (single isomer, unassigned) [Example 83]
22 | < 300 nM | CNC(=O)c1ccc(Oc2cccc3c2CC[C@H]3Oc2ccc(-c3cc(O)n[s+]3[O-])cc2)cc1 (stereo partly drawn) [Example 136, 4-(((1R)-1-(4-(3-hydroxy-1-oxidoisothiazol-5-yl)phenoxy)-2,3-dihydro-1H-inden-4-yl)oxy)-N-methylbenzamide]
23 | < 300 nM | Cc1ccc(Oc2cccc3c2CC[C@H]3Oc2ccc(-c3cc(O)n[s+]3[O-])cc2)cc1 (stereo partly drawn) [Example 93, 3-hydroxy-5-(4-(((R)-4-(p-tolyloxy)-2,3-dihydro-1H-inden-1-yl)oxy)phenyl)isothiazole 1-oxide]
24 | < 300 nM | Cc1ccc(-c2cccc3c2CC[C@H]3Oc2ccc(-c3cc(O)n[s+]3[O-])cc2)cc1 (stereo partly drawn) [Example 5, 3-hydroxy-5-(4-(((1R)-4-(p-tolyl)-2,3-dihydro-1H-inden-1-yl)oxy)phenyl)isothiazole 1-oxide]
25 | 300 to 3000 nM | [O-][s+]1nc(O)cc1-c1ccc(OC2COc3c(Oc4ccccc4)cccc32)cc1 (single isomer, unassigned) [Example 145-b, 3-hydroxy-5-(4-((7-phenoxy-2,3-dihydrobenzofuran-3-yl)oxy)phenyl)isothiazole 1-oxide]
26 | < 300 nM | Cc1cc(Oc2cccc3c2CC[C@H]3Oc2ccc(-c3cc(O)n[s+]3[O-])cc2)ccn1 (stereo partly drawn) [Example 135, 3-hydroxy-5-(4-(((R)-4-((2-methylpyridin-4-yl)oxy)-2,3-dihydro-1H-inden-1-yl)oxy)phenyl)isothiazole 1-oxide]
27 | < 300 nM | COc1cccc(Oc2cccc3c2CC[C@H]3Oc2ccc(-c3cc(O)n[s+]3[O-])cc2)c1 (stereo partly drawn) [Example 91, 3-hydroxy-5-(4-(((R)-4-(3-methoxyphenoxy)-2,3-dihydro-1H-inden-1-yl)oxy)phenyl)isothiazole 1-oxide]
28 | < 300 nM | Cc1ccccc1Oc1cccc2c1CC[C@H]2Oc1ccc(-c2cc(O)n[s+]2[O-])cc1 (stereo partly drawn) [Example 95, 3-hydroxy-5-(4-(((R)-4-(o-tolyloxy)-2,3-dihydro-1H-inden-1-yl)oxy)phenyl)isothiazole 1-oxide]
29 | < 300 nM | COc1ccc(Oc2cccc3c2CC[C@H]3Oc2ccc(-c3cc(O)n[s+]3[O-])cc2)cn1 (stereo partly drawn) [Example 100, 3-hydroxy-5-(4-(((R)-4-((6-methoxypyridin-3-yl)oxy)-2,3-dihydro-1H-inden-1-yl)oxy)phenyl)isothiazole 1-oxide]
30 | < 300 nM | [O-][s+]1nc(O)cc1-c1ccc(O[C@@H]2CCc3c(-c4ccccc4OC(F)(F)F)cccc32)cc1 (stereo partly drawn) [Example 65, 5-(4-(((R)-4-(2-trifluoromethoxyphenyl)-2,3-dihydro-1H-inden-1-yl)oxy)phenyl)-3-hydroxyisothiazole 1-oxide]
31 | < 300 nM | [O-][s+]1nc(O)cc1-c1ccc(O[C@@H]2CCc3c(Oc4cccc(CCO)c4)cccc32)cc1 (stereo partly drawn) [Example 89, 3-hydroxy-5-(4-(((R)-4-(3-(2-hydroxyethyl)phenoxy)-2,3-dihydro-1H-inden-1-yl)oxy)phenyl)isothiazole 1-oxide]
32 | < 300 nM | CCc1ccccc1-c1cccc2c1CC[C@H]2Oc1ccc(-c2cc(O)n[s+]2[O-])cc1 (stereo partly drawn) [Example 9, 5-(4-(((R)-4-(2-ethylphenyl)-2,3-dihydro-1H-inden-1-yl)oxy)phenyl)-3-hydroxyisothiazole 1-oxide]
